Laboratory results from US20080188543A1, “PHARMACEUTICAL COMPOSITIONS CONTAINING SUBSTITUTED INDOLE ACID DERIVATIVES AS INHIBITORS OF PLASMINOGEN ACTIVATOR INHIBITOR-1 (PAI-1)” (Wyeth, priority 2007, published 2008).

Test: Solubility profile (free acid in HCl/NaOH solution, supernatants assayed by HPLC)
Format: physicochemical
Protocol: A solubility profile for [1-(4-tert-butylbenzyl)-5-(3-methylphenyl)-1H-indol-3-yl](oxo)acetic acid was generated using the free acid in HCl/NaOH solution (See FIG. 3). Solutions were centrifuged after 24 hours equilibration (2 hours for pH<4 to avoid degradation) and the supernatants were assayed by HPLC.

With `Cc1cccc(-c2ccc3c(c2)c(C(=O)C(=O)O)cn3Cc2ccc(C(C)(C)C)cc2)c1` [[1-(4-tert-Butylbenzyl)-5-(3-methylphenyl)-1H-indol-3-yl](oxo)acetic acid] the pH-solubility profile (above pH 4 up to pH 8, free acid in HCl/NaOH, 24 hours equilibration) was “solubility increases with increasing pH”, the pH-solubility profile (above pH 8, precipitation of the sodium salt) was “solubility decreases” and the solubility (pH<4, the stomach condition, 2 hours equilibration) was “poor solubility”. The aqueous solubility (upon ionization in aqueous media) was “approximately 24 uG/mL”.
